Source: US20250051283A1, “THERAPEUTIC COMPOUNDS AND METHODS” (priority 2023, published 2025)
Where “and” joins values, the source holds several entries; their conditions need not be identical. Equal values may be shown once.

Tests used:
EV-D68 2A^pro = EV-D68 2A^pro (Enterovirus D68, UniProt A0A097BW19); test: FRET-based enzymatic assay of EV-D68 2Apro inhibition; type: biochemical; conditions: for IC50: read-out: Enzymatic inhibitory activity IC50
Method: (§1) Protein expression and purification. EV-D68 2A^pro gene from strain US/KY/14-18953 was ordered from Genscript (Piscataway, NJ) in pET28b(+) vector with E. coli codon optimization. 2A^pro gene was subcloned into pE-SUMOstar vector according to the manufacturers protocol. Plasmid encoding WT-2A^pro was transformed into BL21(DE3) competent E. coli cells, and a single colony was picked and used to inoculate 10 mL of L.B. grown supplemented with 50 μg/mL kanamycin at 37° C. at 250 rpm. The 10 mL inoculant was added to 1 L of L.B. with 50 μg/mL kanamycin and grown to an OD600 of 0.8-1.0, cooled to 18° C., then induced using 0.5 mM IPTG. Induced cultures were incubated at 18° C. for an additional 24 h, then harvested and resuspended in lysis buffer (25 mM Tris (pH 7.5); 750 mM NaCl, 2 mM DTT with 0.5 mg/mL lysozyme, 0.5 mM PMSF and 0.02 mg/mL DNase I) and lysed with alternating sonication and French press cycles. The cell debris were removed by centrifugation at 12,000×g for 45 min […]. The supernatant was incubated with Ni-NTA resin for over 2 h at 4° C. on a rotator. The Ni-NTA resin was thoroughly washed with 50 mM imidazole in wash buffer (50 mM Tris (pH 7.5), 150 mM NaCl, and 2 mM DTT); for the SUMO-tagged protein, the protein was directly eluted with 300 mM imidazole; for the nontagged 2A^pro Ni-NTA resin was treated with SUMO Protease 1 to remove the SUMO tag, then 2A^pro was washed off from the column with 10 mM imidazole in wash buffer. The imidazole was removed via dialysis or 10 K molecular weight cut-off centrifugal concentrator spin column. The purity of the protein was confirmed with SDS-PAGE. The protein concentration was determined by classic BCA assay using bovine serum albumin as a standard. EV-D68 3C^pro in pET28b(+) vector was expressed as previously described^10.
(§2) Peptide synthesis. The FRET substrate of EV-D68 2A^pro, Dabcyl-KIRIVNT/GPGFGGE-Edans, was synthesized using the Fmoc solid phase synthesis strategy.
(§3) Enzymatic assays. The reaction buffer contains 50 mM Tris (pH7.0), 150 mM NaCl, 10% Glycerol, and 2 mM DTT, and the reaction was carried out at 30° C. in Cytation 5 imaging reader (Fisher Scientific) with EX360/40-EM460/40 filter. Reactions were monitored every 90 sec. […] The reaction was initiated by adding 20 μM of FRET substrate, and the reaction was monitored for 2 hours and initial velocity was calculated for the first 30 minutes via linear regression.

EV-D68 US/MO/14-18947 [1] = test: CPE assay (neutral red) with EV-D68 US/MO/14-18947 in R.D. cells; type: cell-based, Enterovirus D68
Method: (§4) Cell lines and viruses. Human rhabdomyosarcoma (R.D., ATCC, CCL-136) cells were maintained at 37° C. in a 5% CO2 atmosphere and cultured in Dulbecco's modified Eagle's medium (DMEM) supplemented with 10% fetal bovine serum (FBS) and 1% penicillin-streptomycin antibiotics. The following reagents were obtained through BEI Resources, NIAID, NIH: Human Enterovirus D68, US/MO/14-18949, NR-49130; Enterovirus D68, US/MO/14-18947, NR-49129; Enterovirus D68, US/IL/14-18952, NR-49131; Enterovirus D68, US/KY/14-18953, NR-49132; Enterovirus D68, US/IL/14-18956, NR-49133.
(§5) Antiviral assays. Cells for antiviral assays were seeded and grown overnight at 37° C. in a 5% CO2 atmosphere for ˜90% confluency the next day. For all infections, cells were washed with PBS containing magnesium and calcium and infected with virus diluted in DMEM with 2% FBS and 30 mM MgCl2. Viruses were incubated for at least 1 h at 33° C. in a 5% CO2 atmosphere, followed by the addition of compound as well as 1% penicillin-streptomycin. For CC50 measurements, the experiment was performed similarly but excluded viral infection. For cytopathic effect (CPE) assays, cells were stained with 66 µg/mL neutral red for 2 h and neutral red uptake was measured at absorbance 540 nm using a Multiskan FC Microplate Photometer (ThermoFisher Scientific). The EC50 and CC50 values were calculated from best-fit dose response curves using GraphPad Prism. For plaque reduction assays, an 1.2% avicel microcrystalline cellulose (FMC BioPolymer, Philadelphia, PA) overlay was used and cells were stained after 3 days as previously described^26.

EV-D68 US/MO/14-18947 [2] = test: Secondary plaque reduction assay with EV-D68 US/MO/14-18947; type: cell-based, Enterovirus D68
Method: as §4
as §5, with “For CC50 measurements, the experiment was performed similarly but excluded viral infection.” left out, “For plaque reduction assays, an 1.2% avicel microcrystalline cellulose (FMC BioPolymer, Philadelphia, PA) overlay was used and cells were stained after 3 days as previously described^26.” left out

R.D. cells = test: Cytotoxicity by neutral red uptake in R.D. cells, no viral infection; type: cell-based, Human
Method: as §4, §5

[3] = tested on: EV-D68 US/IL/14-18952 (clade B2); test: Broad-spectrum antiviral activity (Table 1), US/IL/14-18952; type: cell-based, Enterovirus D68; conditions: Enterovirus D, EVD68
Method: as §4
as §5, with “For CC50 measurements, the experiment was performed similarly but excluded viral infection.” left out, “For plaque reduction assays, an 1.2% avicel microcrystalline cellulose (FMC BioPolymer, Philadelphia, PA) overlay was used and cells were stained after 3 days as previously described^26.” left out

[4] = tested on: EV-D68 US/KY/14-18953 (clade D); test: Broad-spectrum antiviral activity (Table 1), US/KY/14-18953; type: cell-based, Enterovirus D68; conditions: Enterovirus D, EVD68
Method: as §4
as §5, with “For CC50 measurements, the experiment was performed similarly but excluded viral infection.” left out, “For plaque reduction assays, an 1.2% avicel microcrystalline cellulose (FMC BioPolymer, Philadelphia, PA) overlay was used and cells were stained after 3 days as previously described^26.” left out

[5] = biological target: T1, EV-D68 2A^pro (WT-2A^pro, strain US/KY/14-18953, expressed in E. coli BL21(DE3) from pE-SUMOstar vector) (enterovirus D68, UniProt A0A097BW19); test: FRET-based enzymatic assay of EV-D68 2A^pro inhibition (FRET substrate Dabcyl-KIRIVNT/GPGFGGE-Edans); type: biochemical
T1 construct: E. coli-codon-optimised gene, pE-SUMOstar, His-SUMO tag (removed with SUMO protease for nontagged form), E. coli BL21(DE3), Ni-NTA; 7JRE is the C107A mutant
Method: (§6) FIG. 4. […] Key structural variations compared to telaprevir were highlighted in red. Enzymatic inhibitory activity IC50 value was determined in the FRET-based assay. Antiviral EC50 value was determined in the CPE assay with EV-D68 US/MO/14-18947 in R.D. cells. Cytotoxicity CC50 value was determined using the neutral red uptake method in R.D. cells. The results are the mean±standard deviation of two independent experiments with three repeats in each experiment.
as §6, with “5.” for “4.”, “Jun8861” for “telaprevir”
as §1, §2, §3

[6] = Cytotoxicity by neutral red uptake in R.D. cells, no viral infection; type: cell-based, Human; conditions: human, R.D. (rhabdomyosarcoma, ATCC CCL-136) cells, uninfected
Method: as §4, §5

[7] = CPE assay, EV-D68 US/MO/14-18947 in R.D. cells
[8] = Enterovirus D, EVD68, RD, read-out: Antiviral EC50, CPE assay, EV-D68 US/MO/14-18947 in R.D. cells

Structure (SMILES)	enzymatic inhibition, in words, relative to the named comparator (EV-D68 2A^pro)	antiviral activity, in words, relative to the named comparator (EV-D68 US/MO/14-18947 [1]; [7])	IC50 [5] [µM]	IC50 (EV-D68 2A^pro)	EC50 (EV-D68 US/MO/14-18947 [1]; [8]) [µM]	also measured
CCC(C)[C@H](NC(=O)[C@@H]1[C@H]2CCC[C@H]2CN1C(=O)[C@@H](NC(=O)CC12CC3CC(CC(C3)C1)C2)C(C)(C)C)C(=O)C(=O)NC1CC1 (stereo partly drawn) [Jun11756, (1S,3aR,6aS)-2-((S)-2-(2-((3S,5S,7S)-adamantan-1-yl)acetamido)-3,3-dimethylbutanoyl)-N-((3S,4S)-1-(cyclopropylamino)-4-methyl-1,2-dioxohexan-3-yl)octahydrocyclopenta[c]pyrrole-1-carboxamide]	comparable enzymatic inhibition and antiviral activity as Jun8861	comparable enzymatic inhibition and antiviral activity as Jun8861	–	–	–	EC50 (EV-D68 US/MO/14-18947 [2]): 0.0135 µM
CCC[C@H](NC(=O)[C@@H]1[C@H]2CCC[C@H]2CN1C(=O)[C@@H](NC(=O)[C@@H](NC(=O)c1cnccn1)C1CCCCC1)C(C)(C)C)C(=O)C(=O)NC1CC1 [Telaprevir, reference compound]	–	–	–	–	–	CC50 (R.D. cells): 83.2 µM; EC50 [3]: 0.828 ± 0.107 µM; EC50 [4]: 0.209 ± 0.0371 µM
CC(C)(C)[C@H](NC(=O)CC12CC3CC(CC(C3)C1)C2)C(=O)N1C[C@@H]2CCC[C@@H]2[C@H]1C(=O)N[C@H](C(=O)C(=O)NC1CC1)C1CCCC1 [Jun11808, (1S,3aR,6aS)-2-((S)-2-(2-((3S,5S,7S)-adamantan-1-yl)acetamido)-3,3-dimethylbutanoyl)-N—((S)-1-cyclopentyl-3-(cyclopropylamino)-2,3-dioxopropyl)octahydrocyclopenta[c]pyrrole-1-carboxamide]	comparable enzymatic inhibition and antiviral activity as Jun8861	comparable enzymatic inhibition and antiviral activity as Jun8861	0.2 ± 0.07	–	–	–
CC(C)(C)C(NC(=O)CC12CC3CC(CC(C3)C1)C2)C(=O)N1CC2CCCC2C1C(=O)NC(Cc1ccccc1)C(=O)C(=O)NC1CC1 [Jun11385, (1S,3aR,6aS)-2-((S)-2-(2-((3S,5S,7S)-adamantan-1-yl)acetamido)-3,3-dimethylbutanoyl)-N—((S)-4-(cyclopropylamino)-3,4-dioxo-1-phenylbutan-2-yl)octahydrocyclopenta[c]pyrrole-1-carboxamide]	–	–	–	–	–	CC50 [6]: 17.4 µM
CCC[C@H](NC(=O)[C@@H]1[C@H]2CCC[C@H]2CN1C(=O)[C@@H](NC(=O)CC1CCCCC1)C(C)(C)C)C(=O)C(=O)NC1CC1 [Jun8814, (1S,3aR,6aS)-2-((S)-2-(2-cyclohexylacetamido)-3,3-dimethylbutanoyl)-N—((S)-1-(cyclopropylamino)-1,2-dioxohexan-3-yl)octahydrocyclopenta[c]pyrrole-1-carboxamide]	–	–	0.09 ± 0.01	0.08 to 0.14 µM	0.16 to 0.75	–
CCC[C@H](NC(=O)[C@@H]1[C@H]2CCC[C@H]2CN1C(=O)[C@@H](NC(=O)C=Cc1ccccc1)C(C)(C)C)C(=O)C(=O)NC1CC1 [Jun8813, (1S,3aR,6aS)-2-((S)-2-cinnamamido-3,3-dimethylbutanoyl)-N—((S)-1-(cyclopropylamino)-1,2-dioxohexan-3-yl)octahydrocyclopenta[c]pyrrole-1-carboxamide]	reduced enzymatic inhibition and antiviral activity compared to telaprevir	reduced enzymatic inhibition and antiviral activity compared to telaprevir	0.76 ± 0.32	–	–	–
CCC[C@H](NC(=O)[C@@H]1[C@H]2CCC[C@H]2CN1C(=O)[C@@H](NC(=O)CC12CC3CC(CC(C3)C1)C2)C(C)(C)C)C(=O)C(=O)NC1CC1 [Jun8861]	–	–	–	0.08 to 0.14 µM and 0.08 µM	0.16 to 0.75	EC50 (EV-D68 US/MO/14-18947 [1]; read-out: Antiviral EC50, CPE assay, EV-D68 US/MO/14-18947 in R.D. cells): 0.16 µM; CC50 (R.D. cells): 36.2 µM
CCC[C@H](NC(=O)[C@@H]1[C@H]2CCC[C@H]2CN1C(=O)[C@@H](NC(=O)Cc1ccccc1)C(C)(C)C)C(=O)C(=O)NC1CC1 [Jun8681, (1S,3aR,6aS)—N—((S)-1-(cyclopropylamino)-1,2-dioxohexan-3-yl)-2-((S)-3,3-dimethyl-2-(2-phenylacetamido)butanoyl)octahydrocyclopenta[c]pyrrole-1-carboxamide]	reduced enzymatic inhibition and antiviral activity compared to telaprevir	reduced enzymatic inhibition and antiviral activity compared to telaprevir	0.25 ± 0.02	–	–	–
CCC[C@H](NC(=O)[C@@H]1[C@H]2CCC[C@H]2CN1C(=O)[C@@H](NC(=O)CC1CCCC1)C(C)(C)C)C(=O)C(=O)NC1CC1 [Jun971, (1S,3aR,6aS)-2-((S)-2-(2-cyclopentylacetamido)-3,3-dimethylbutanoyl)-N—((S)-1-(cyclopropylamino)-1,2-dioxohexan-3-yl)octahydrocyclopenta[c]pyrrole-1-carboxamide]	–	–	0.1 ± 0.01	0.08 to 0.14 µM	0.16 to 0.75	–
CCC[C@H](NC(=O)[C@@H]1[C@H]2CCC[C@H]2CN1C(=O)[C@@H](NC(=O)OCc1ccccc1)C(C)(C)C)C(=O)C(=O)NC1CC1 [Jun7426, Benzyl ((S)-1-((1S,3aR,6aS)-1-(((S)-1-(cyclopropylamino)-1,2-dioxohexan-3-yl)carbamoyl)hexahydrocyclopenta[c]pyrrol-2(1H)-yl)-3,3-dimethyl-1-oxobutan-2-yl)carbamate]	reduced enzymatic inhibition and antiviral activity compared to telaprevir	reduced enzymatic inhibition and antiviral activity compared to telaprevir	0.76 ± 0.1	–	–	–
